Measurements published in patent US10150766B2, “P2X7 modulators” (Jansssen Pharmaceutica NV, priority 2014, dated 2018).
Like-named read-outs stand apart in the source and are kept apart here.

How the values were obtained:
P2X7 [1] = biological target: T1, P2X7 (Homo sapiens (Human), UniProt Q99572); assay: P2X7 antagonism in human peripheral blood mononuclear cells (PBMCs), IL-1β release (LPS + Bz-ATP, ELISA); format: cell-based; details: P2X7, 10 μM test compound, LPS 30 ng/ml + Bz-ATP 0.5 mM, read-out: PBMC @10 μM (% control)
P2X7 [2] = biological target: T1, P2X7; assay: Radioligand binding ([3H]A-804598) to membranes of human P2X7-1321N1 cells; details: human P2X7-1321N1 membranes, tracer tritiated A-804598, 1 hour at 4° C.
Description: P2X7 Antagonism in Recombinant Human P2X7 Cells or Recombinant Rat P2X7 Cells:
human or rat P2X7-1321N1 cells were collected and frozen @ −80° C. On the day of the experiment, cell membrane preparations were made according to standard published methods. […] The compound can be prepared as described in the literature. […] The assay was terminated by filtration (GF/B filters pre-soaked with 0.3% PEI) and washed with washing buffer (Tris-HCl 50 mM). The IC50 generated in the binding assay was corrected for tracer concentration and affinity of the tracer to derive at the affinity (Ki) of the test compounds. The data are presented in Table 2 under the headings: P2X7 human Ki (μM) and P2X7 rat Ki (μM). Data are analyzed and graphed on Graphpad Prism 5. For analysis, each concentration point is averaged from triplicate values and the averaged values are plotted on Graphpad Prism.

rat P2X7 = rat P2X7 (Rattus norvegicus (Rat), UniProt Q64663); assay: P2X7 antagonism in recombinant rat P2X7 cells (column headed P2X7 Rat IC50); format: binding
P2X7 [3] = biological target: T1, P2X7; assay: P2X7 antagonism in human whole blood, IL-1β release (LPS + Bz-ATP, ELISA); format: cell-based; details: LPS 30 ng/ml + Bz-ATP 1 mM

Sequence of rat P2X7 (Q64663 whole entry): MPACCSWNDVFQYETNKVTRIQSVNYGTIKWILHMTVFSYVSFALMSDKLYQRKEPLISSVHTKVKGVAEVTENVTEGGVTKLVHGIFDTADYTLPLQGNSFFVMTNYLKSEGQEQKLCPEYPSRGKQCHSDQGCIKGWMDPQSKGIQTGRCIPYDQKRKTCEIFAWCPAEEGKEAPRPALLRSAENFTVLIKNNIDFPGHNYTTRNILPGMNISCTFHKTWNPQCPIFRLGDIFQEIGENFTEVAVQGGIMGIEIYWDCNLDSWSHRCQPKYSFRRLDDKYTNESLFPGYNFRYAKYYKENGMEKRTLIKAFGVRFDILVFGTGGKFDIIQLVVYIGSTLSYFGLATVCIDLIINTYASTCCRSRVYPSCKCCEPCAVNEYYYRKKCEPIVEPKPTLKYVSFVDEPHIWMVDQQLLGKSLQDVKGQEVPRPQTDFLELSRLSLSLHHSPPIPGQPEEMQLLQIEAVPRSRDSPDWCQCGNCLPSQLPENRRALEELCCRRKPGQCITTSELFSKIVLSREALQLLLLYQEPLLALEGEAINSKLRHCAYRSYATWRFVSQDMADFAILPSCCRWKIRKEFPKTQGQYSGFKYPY
T1 sequence (Q99572 whole entry): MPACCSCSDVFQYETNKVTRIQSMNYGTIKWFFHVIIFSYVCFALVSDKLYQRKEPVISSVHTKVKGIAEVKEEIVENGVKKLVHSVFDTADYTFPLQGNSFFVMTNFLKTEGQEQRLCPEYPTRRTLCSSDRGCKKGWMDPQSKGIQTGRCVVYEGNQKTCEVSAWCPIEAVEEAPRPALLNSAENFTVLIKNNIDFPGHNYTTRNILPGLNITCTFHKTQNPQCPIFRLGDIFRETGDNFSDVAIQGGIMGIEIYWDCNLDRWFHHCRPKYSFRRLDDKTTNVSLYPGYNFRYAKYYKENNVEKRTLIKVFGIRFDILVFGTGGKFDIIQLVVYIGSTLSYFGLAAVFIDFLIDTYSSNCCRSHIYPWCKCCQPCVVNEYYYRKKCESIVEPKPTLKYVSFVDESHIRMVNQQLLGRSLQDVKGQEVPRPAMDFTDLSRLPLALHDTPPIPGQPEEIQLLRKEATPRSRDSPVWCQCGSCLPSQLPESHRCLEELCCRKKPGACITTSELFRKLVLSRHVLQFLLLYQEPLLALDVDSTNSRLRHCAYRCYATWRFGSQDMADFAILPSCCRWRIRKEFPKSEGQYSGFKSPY

Row | SMILES | remaining activity at 10 µM (P2X7 [1]) | Ki (P2X7 [2]) | IC50 (rat P2X7) | IC50 (P2X7 [3]; Human Whole Blood IC50 (μM)) | IC50 (P2X7 [3]; read-out: Human Whole Blood IC50)
1 | Cc1nc(-c2ccn[nH]2)c2c(n1)C1CCCC(C2)N1C(=O)c1cccc(Cl)c1Cl (stereo not drawn) [Example 1, (2,3-dichlorophenyl)(2-methyl-4-(1H-pyrazol-5-yl)-5,6,7,8,9,10-hexahydro-6,10-epiminocycloocta[d]pyrimidin-11-yl)methanone] | 3.3% | 31.6 nM | 101 nM | 0.027 µM | –
2 | Cc1nc(-c2ccccn2)c2c(n1)[C@H]1CCC[C@@H](C2)N1C(=O)c1cccc(C(F)(F)F)c1C [Example 62, (2-methyl-3-(trifluoromethyl)phenyl)((6S,10R)-2-methyl-4-(pyridin-2-yl)-5,6,7,8,9,10-hexahydro-6,10-epiminocycloocta[d]pyrimidin-11-yl)methanone] | -1.4% | 63.1 nM | 51.3 nM | 0.058 µM | –
3 | Cc1nc(-c2ccn[nH]2)c2c(n1)[C@H]1CCC[C@@H](C2)N1C(=O)c1cccc(Cl)c1Cl [Example 29, (2,3-dichlorophenyl)((6S,10R)-2-methyl-4-(1H-pyrazol-5-yl)-5,6,7,8,9,10-hexahydro-6,10-epiminocycloocta[d]pyrimidin-11-yl)methanone] | -22.9% | 20 nM | 206 nM | 0.008 µM | –
4 | Cc1nc(-c2ccc(F)cc2)c2c(n1)[C@H]1CCC[C@@H](C2)N1C(=O)c1cccc(C(F)(F)F)c1Cl [Example 51, (2-chloro-3-(trifluoromethyl)phenyl)((6S,10R)-4-(4-fluorophenyl)-2-methyl-5,6,7,8,9,10-hexahydro-6,10-epiminocycloocta[d]pyrimidin-11-yl)methanone] | -3% | 44.7 nM | 16.6 nM | 0.043 µM | –
5 | Cc1nc(-c2ccccn2)c2c(n1)[C@H]1CCC[C@@H](C2)N1C(=O)c1cccc(C(F)(F)F)c1Cl [Example 63, (2-chloro-3-(trifluoromethyl)phenyl)((6S,10R)-2-methyl-4-(pyridin-2-yl)-5,6,7,8,9,10-hexahydro-6,10-epiminocycloocta[d]pyrimidin-11-yl)methanone] | -0.9% | 39.8 nM | 33.1 nM | 0.068 µM | –
6 | Cc1nc(-c2ccccn2)c2c(n1)[C@H]1CCC[C@@H](C2)N1C(=O)c1ccc(Cl)c(F)c1Cl [Example 64, (2,4-dichloro-3-fluorophenyl)((6S,10R)-2-methyl-4-(pyridin-2-yl)-5,6,7,8,9,10-hexahydro-6,10-epiminocycloocta[d]pyrimidin-11-yl)methanone] | -2.8% | 20 nM | 376 nM | 0.037 µM | –
7 | Cc1nc(-c2ccccn2)c2c(n1)[C@H]1CCC[C@@H](C2)N1C(=O)c1cccc(Cl)c1Cl [Example 65, (2,3-dichlorophenyl)((6S,10R)-2-methyl-4-(pyridin-2-yl)-5,6,7,8,9,10-hexahydro-6,10-epiminocycloocta[d]pyrimidin-11-yl)methanone] | 0.1% | 49 nM | 184 nM | 0.042 µM | –
8 | Cc1nc(-c2ncccn2)c2c(n1)[C@H]1CCC[C@@H](C2)N1C(=O)c1cccc(C(F)(F)F)c1Cl [Example 41, (2-chloro-3-(trifluoromethyl)phenyl)((6S,10R)-2-methyl-4-(pyrimidin-2-yl)-5,6,7,8,9,10-hexahydro-6,10-epiminocycloocta[d]pyrimidin-11-yl)methanone] | -5.6% | 29.5 nM | 15.8 nM | 0.021 µM | –
9 | Cc1nc(-c2ccn[nH]2)c2c(n1)[C@H]1CCC[C@@H](C2)N1C(=O)c1ccnc(C(F)(F)F)c1F [Example 27, (3-fluoro-2-(trifluoromethyl)pyridin-4-yl)((6S,10R)-2-methyl-4-(1H-pyrazol-5-yl)-5,6,7,8,9,10-hexahydro-6,10-epiminocycloocta[d]pyrimidin-11-yl)methanone] | -10.2% | 151 nM | 132 nM | – | 0.172 µM
